Data from patent US12043599B2, “Herbicidal compounds” (SYNGENTA PARTICIPATIONS AG, priority 2018, dated 2024).

Assays:
Type in all cases: in vivo
Conditions in all cases: 250 g/h, evaluated after 13 days
[1] = system: Alopecurus myosuroides (ALOMY); experiment: Pre-emergence herbicidal glasshouse test, percentage damage
Outline: (§1)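 Seeds are sown in pots, grown at 24/16 °C day/night with 14 h light and 65% humidity, then sprayed at day 1 (pre-emergence) or day 8 (post-emergence). The rate is 250 g/h in acetone/water 50:50 with 0.5% Tween 20. Damage is assessed 13 days later on a 1–5 scale.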

Lolium perenne (LOLPE) [2] = experiment: as above
Outline: as §1

Setaria faberi (SETFA) [3] = experiment: as above
Outline: as §1

[4] = system: Echinochloa crus-galli (ECHCG); experiment: as above
Outline: as §1

Avena fatua (AVEFA) [5] = experiment: as above
Outline: as §1

Setaria faberi (SETFA) [6] = experiment: Post-emergence herbicidal glasshouse test, percentage damage
Outline: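 Percentage damage was scored 13 days after treatment on a five-point scale (1=0-19% to 5=80-100%). Treatments were post-emergence sprays on 8-day-old wheat, barley and SETFA plants in a glasshouse (24/16 °C day/night, 14 h light, 65% humidity), using acetone/water 50:50 with 0.5% Tween 20 at the stated rates. Wheat additionally received cloquintocet-mexyl safener at 50 g/ha.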

[7] = system: Alopecurus myosuroides (ALOMY); experiment: as above
Outline: as §1

Lolium perenne (LOLPE) [8] = experiment: as above
Outline: as §1

[9] = system: Echinochloa crus-galli (ECHCG); experiment: as above
Outline: as §1

Avena fatua (AVEFA) [10] = experiment: as above
Outline: as §1

| Compound | ALOMY PRE percentage damage (five point scale) [1] | LOLPE PRE percentage damage (five point scale) (Lolium perenne (LOLPE) [2]) | SETFA PRE percentage damage (five point scale) (Setaria faberi (SETFA) [3]) | ECHCG PRE percentage damage (five point scale) [4] | AVEFA PRE percentage damage (five point scale) (Avena fatua (AVEFA) [5]) | SETFA POST percentage damage (five point scale) (Setaria faberi (SETFA) [6]) | ALOMY POST percentage damage (five point scale) [7] | LOLPE POST percentage damage (five point scale) (Lolium perenne (LOLPE) [8]) | ECHCG POST percentage damage (five point scale) [9] | AVEFA POST percentage damage (five point scale) (Avena fatua (AVEFA) [10]) |
| --- | --- | --- | --- | --- | --- | --- | --- | --- | --- | --- |
| CC#Cc1cc(C)c(C2=C(OC(=O)OC)CC3(CCN(C(=O)c4cccnn4)CC3)CC2=O)c(C)c1 [Compound P30] | 5 (5=80-100%) | 5 (5=80-100%) | 5 (5=80-100%) | 5 (5=80-100%) | 5 (5=80-100%) | 5 (5=80-100%) | 5 (5=80-100%) | 5 (5=80-100%) | 5 (5=80-100%) | 5 (5=80-100%) |
| CC#Cc1cc(C)c(C2=C(OC(=O)OC)CC3(CCN(C(=O)COCCOC)CC3)CC2=O)c(C)c1 [Compound P50] | 3 (3=40-59%) | 4 (4=60-79%) | 5 (5=80-100%) | 5 (5=80-100%) | 2 (2=20-39%) | 5 (5=80-100%) | 4 (4=60-79%) | 5 (5=80-100%) | 5 (5=80-100%) | 5 (5=80-100%) |
| CC#Cc1cc(C)c(C2=C(OC(=O)OC)CC3(CCN(C(=O)COCC)CC3)CC2=O)c(C)c1 [Compound P51] | 5 (5=80-100%) | 5 (5=80-100%) | 5 (5=80-100%) | 5 (5=80-100%) | 5 (5=80-100%) | 5 (5=80-100%) | 5 (5=80-100%) | 5 (5=80-100%) | 5 (5=80-100%) | 5 (5=80-100%) |
| CC#Cc1cc(C)c(C2=C(OC(=O)OCCOC)CC3(CCN(C(=O)OCCOC)CC3)CC2=O)c(C)c1 [Compound P52] | 5 (5=80-100%) | 5 (5=80-100%) | 5 (5=80-100%) | 5 (5=80-100%) | 5 (5=80-100%) | 5 (5=80-100%) | 5 (5=80-100%) | 5 (5=80-100%) | 5 (5=80-100%) | 5 (5=80-100%) |
| CC#Cc1cc(C)c(C2=C(OC(=O)OC)CC3(CCN(C(=O)NC(C)=O)CC3)CC2=O)c(C)c1 [Compound P53] | 4 (4=60-79%) | 4 (4=60-79%) | 5 (5=80-100%) | 5 (5=80-100%) | 5 (5=80-100%) | 5 (5=80-100%) | 5 (5=80-100%) | 5 (5=80-100%) | 5 (5=80-100%) | 5 (5=80-100%) |
| CC#Cc1cc(C)c(C2=C(OC(=O)C(C)(C)C)CC3(CCN(C(=O)N(C)C(=O)C(C)(C)C)CC3)CC2=O)c(C)c1 [Compound P54] | 4 (4=60-79%) | 5 (5=80-100%) | 5 (5=80-100%) | 5 (5=80-100%) | 4 (4=60-79%) | 5 (5=80-100%) | 5 (5=80-100%) | 5 (5=80-100%) | 5 (5=80-100%) | 4 (4=60-79%) |
